For two molecules, Activity % and activity results are on record in PMC6917776, “Discovery of a chemical probe for PRDM9” (Nature Communications, 2019).

Structures are written as SMILES. Like-named read-outs stand apart in the source and are kept apart here.

One assay has as its target T1, G9a (Homo sapiens, UniProt Q96KQ7).
T1 construct: purchased Structural Genomics Consortium (SGC Toronto) in-house methyltransferase panel
T1 sequence (Q96KQ7 1-1210): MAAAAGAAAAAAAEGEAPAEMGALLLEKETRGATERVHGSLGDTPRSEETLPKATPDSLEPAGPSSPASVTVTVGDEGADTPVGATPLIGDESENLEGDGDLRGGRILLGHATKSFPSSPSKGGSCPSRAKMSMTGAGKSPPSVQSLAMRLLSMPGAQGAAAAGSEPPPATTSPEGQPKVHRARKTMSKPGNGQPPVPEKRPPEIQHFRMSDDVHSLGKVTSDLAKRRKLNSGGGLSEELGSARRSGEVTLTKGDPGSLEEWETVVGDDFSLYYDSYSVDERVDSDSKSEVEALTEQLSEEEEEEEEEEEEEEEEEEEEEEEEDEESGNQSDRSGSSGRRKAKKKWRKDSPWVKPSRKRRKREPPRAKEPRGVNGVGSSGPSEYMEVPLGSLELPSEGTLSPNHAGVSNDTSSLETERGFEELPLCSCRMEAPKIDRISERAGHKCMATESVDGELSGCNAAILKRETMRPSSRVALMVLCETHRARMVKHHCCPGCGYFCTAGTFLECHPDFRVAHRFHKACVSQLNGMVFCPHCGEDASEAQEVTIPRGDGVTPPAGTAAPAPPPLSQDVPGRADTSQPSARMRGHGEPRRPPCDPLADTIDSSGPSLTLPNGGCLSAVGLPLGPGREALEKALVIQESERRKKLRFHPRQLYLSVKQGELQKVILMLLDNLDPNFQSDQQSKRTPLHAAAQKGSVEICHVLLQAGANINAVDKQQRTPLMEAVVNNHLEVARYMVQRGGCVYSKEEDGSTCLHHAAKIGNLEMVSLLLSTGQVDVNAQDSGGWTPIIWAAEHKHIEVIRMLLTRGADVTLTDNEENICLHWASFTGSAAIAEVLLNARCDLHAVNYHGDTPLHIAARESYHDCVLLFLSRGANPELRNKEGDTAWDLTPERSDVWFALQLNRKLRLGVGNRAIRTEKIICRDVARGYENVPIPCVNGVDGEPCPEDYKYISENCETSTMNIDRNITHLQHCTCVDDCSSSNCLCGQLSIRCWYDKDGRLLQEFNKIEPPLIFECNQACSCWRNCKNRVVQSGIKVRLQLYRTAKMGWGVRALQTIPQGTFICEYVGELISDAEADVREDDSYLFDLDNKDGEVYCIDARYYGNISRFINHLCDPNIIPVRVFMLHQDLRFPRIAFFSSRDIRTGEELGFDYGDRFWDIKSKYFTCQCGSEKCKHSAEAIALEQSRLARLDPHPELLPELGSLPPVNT
Nature of the assay: Methyltransferase selectivity assay (SPA). The format is biochemical. The method, then:
(§1) Selectivity against methyltransferases were determined as described previously. Details of the assays are described in the supplementary methods.
(§2) Methyltransferase selectivity assay1
(§3) The effect of chemical probes and negative controls on the methyltransferase activities of protein, DNA and RNA methyltransferases was tested by radiometric assays using 3H-SAM. For proteins such as MLL1 trimeric, MLL3 pentameric, EZH1 (PRC2) pentameric, and EZH2 (PRC2) trimeric complexes, as well as G9a, GLP, SUV39H1, SUV39H2, SUV420H1, SUV420H2, SETD2, SETD8, SETDB1, SETD7, PRMT1, PRMT3, PRMT4, PRMT5/ MEP50 complex, PRMT6, PRMT7, PRMT8, PRMT9, PRDM9, SMYD2, SMYD3, DNMT1, and BCDIN3D the incorporation of a tritium-labeled methyl group into biotinylated substrate was monitored using scintillation proximity assay (SPA). Briefly, a 10 µL reaction containing 3H-SAM and substrate at concentrations close to the apparent Km values for each enzyme (balanced conditions) was prepared. The reactions were quenched with 10 µL of 7.5 M guanidine hydrochloride; 180 µL of 20 mM Tris buffer (pH 8.0) were added, and the mixture was transferred to a 96-well FlashPlate and incubated for 1 h. The counts per minute (CPM) was measured on a TopCount plate reader. The CPM in the absence of compound or enzyme was defined as 100% activity and background (0%), respectively, for each dataset. For DNMT1, the double-stranded DNA substrate was prepared by annealing two complementary strands (biotinylated forward strand: B-[…] and reverse strand:
(§4) ) that were synthesized by Eurofins MWG Operon
(§5) For proteins which were tested with nucleosome as substrate such as DOT1L, NSD1, NSD2, NSD3, and ASH1L, or unbiotinylated Poly(2′-deoxyinosinic-2′-deoxycytidylic acid) (Cat# 81349-500UG, Sigma Aldrich) such as DNMT3A/3L, and DNMT3B/3L, a filter-based assay was used. In this assay, a trichloroacetic acid (TCA) protein precipitation protocol was employed. A 10 µL reaction mixture was incubated at 23°C for 1 h, followed by addition of 50 µL of 10% TCA. The mixture was transferred to filter plates (Millipore, Billerica, MA, USA) that were centrifuged at 2000 rpm (Allegra X-15R; Beckman Coulter, Brea, CA, USA) for 2 min. Samples were washed twice with 10% TCA and once with ethanol (180 µL), and centrifuged. After drying, 100 µL MicroScint-O (Perkin Elmer) was added to each well and the plates were centrifuged to remove the liquid. A 70 µL volume of MicroScint-O was added and the CPM was measured with a TopCount plate reader.

In a further assay the target is T2, BCDIN3D (Homo sapiens, UniProt Q7Z5W3).
T2 construct: purchased Structural Genomics Consortium (SGC Toronto) in-house methyltransferase panel
T2 sequence (Q7Z5W3 1-292): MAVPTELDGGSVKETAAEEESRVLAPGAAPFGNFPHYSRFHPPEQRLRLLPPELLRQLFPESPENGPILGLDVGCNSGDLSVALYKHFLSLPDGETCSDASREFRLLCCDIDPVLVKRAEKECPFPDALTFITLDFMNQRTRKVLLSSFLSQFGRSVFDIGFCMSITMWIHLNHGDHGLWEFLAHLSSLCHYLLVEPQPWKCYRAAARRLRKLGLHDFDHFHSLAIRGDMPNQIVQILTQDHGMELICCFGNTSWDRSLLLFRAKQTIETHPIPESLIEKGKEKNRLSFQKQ
In words: Methyltransferase selectivity assay (SPA). The format is biochemical. As to the method: as §1, §2, §3, §4, §5

The mark [1] stands for this setting: 1µM compound, Exp1, Exp2, read-out: Activity %.
Where [2] appears, read: 10µM compound, Exp1, Exp2, read-out: Activity %.
The mark [3] stands for this setting: 10µM compound, Exp1, Exp2, 10 µM.

With `COc1cc(OC)cc(-c2noc(N3CCN(C)C4(CCN(c5ccnc(C)c5)CC4)C3)n2)c1` [MRK-740], the Activity % on G9a (1µM compound, Exp1, Exp2, 1 µM) came to 89%; at BCDIN3D (1µM compound, Exp1, Exp2, 1 µM) it was 100%; at BCDIN3D (setting [3]), 95%. Further, the activity at 1 µM at G9a (setting [1]) was determined as 93%; at BCDIN3D (setting [1]), 101%. The activity at 10 µM turned out to be 94% on G9a (setting [2]) and 104% on BCDIN3D (setting [2]).
`COc1cc(OC)cc(-c2noc(N3CCN(C)C4(CCN(c5ccccc5)CC4)C3)n2)c1` [MRK-740 -NC]: the activity at 1 µM came to 101% on G9a (1µM compound, Exp1, Exp2) and 103% at BCDIN3D (1µM compound, Exp1, Exp2). Besides, the Activity % on G9a (1µM compound, Exp1, Exp2, 1 µM) was found to be 100%; on G9a (setting [3]) it was 93%; at BCDIN3D (1µM compound, Exp1, Exp2, 1 µM), 101%; at BCDIN3D (setting [3]) it was 94%. Besides, the activity at 10 µM on G9a (10µM compound, Exp1, Exp2) was found to be 95%; on BCDIN3D (10µM compound, Exp1, Exp2), 100%.
